Test results from PubChem BioAssay (NCI).
Values joined by “and” are separate entries in the source; they are usually repeats but may differ in a detail not shown here. Equal entries are not always repeated.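 Briefly, cells in 96-well plates were exposed to five compound concentrations for 48 h, and endpoints were estimated by linear interpolation. GI50 is the concentration that inhibits growth by half. At the TGI there is no net growth.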

What was measured:
Assay in all cases: NCI tumour cell line growth inhibition, 48 h
HL-60(TB) leukemia = system: HL-60(TB) leukemia
HOP-92 NSCLC = system: HOP-92 NSCLC
IGROV1 ovarian = system: IGROV1 ovarian
MALME-3M melanoma = system: MALME-3M melanoma
MCF7 breast = system: MCF7 breast
NCI/ADR-RES ovarian = system: NCI/ADR-RES ovarian
OVCAR-8 ovarian = system: OVCAR-8 ovarian
SNB-75 CNS = system: SNB-75 CNS
T-47D breast = system: T-47D breast
UO-31 renal = system: UO-31 renal

SMILES	GI50 (HL-60(TB) leukemia)	TGI (HL-60(TB) leukemia)	GI50 (HOP-92 NSCLC)	TGI (HOP-92 NSCLC)	GI50 (IGROV1 ovarian)	TGI (IGROV1 ovarian)	GI50 (MALME-3M melanoma)	TGI (MALME-3M melanoma)	GI50 (MCF7 breast)	TGI (MCF7 breast)	GI50 (NCI/ADR-RES ovarian)	TGI (NCI/ADR-RES ovarian)	GI50 (OVCAR-8 ovarian)	TGI (OVCAR-8 ovarian)	GI50 (SNB-75 CNS)	TGI (SNB-75 CNS)	GI50 (T-47D breast)	TGI (T-47D breast)	GI50 (UO-31 renal)	TGI (UO-31 renal)
CCCCNC(=O)NS(=O)(=O)c1ccc(N2N=C(c3cc(C)ccc3C)CC2c2cc(OC)c(OC)c(OC)c2)cc1 (stereo unspecified)	2.87 µM	7.62 µM	1.27 µM	4.63 µM	3.19 µM	9.96 µM	2.4 µM	6.83 µM	2.06 µM	5.58 µM	2.95 µM	11.4 µM	3.03 µM	10.5 µM	2.12 µM	5.83 µM	3.91 µM	18.4 µM	3.07 µM	12.3 µM
C/C=C/[C@@H]1OC(=O)C2=C[C@@H](O)[C@@H](/C=C/C)O[C@H]21	7.47 µM	> 100 µM	2.4 µM	9.12 µM	7.62 µM	> 56 µM	1.73 µM	5.56 µM	14.4 µM	> 100 µM	19.2 µM	> 56.2 µM	13.4 µM	34.1 µM	14.6 µM	32.4 µM	3.3 µM	13 µM	3.05 µM	> 35.7 µM
CC(C)c1ccc(Nc2nccc(-c3cnn4ncccc34)n2)cc1	1.32 µM	4.12 µM	0.503 µM	1.59 µM	0.502 µM	> 19.5 µM	1.04 µM	4.01 µM	0.0653 µM		0.584 µM	5.27 µM	0.555 µM	3.74 µM	0.484 µM	1.17 µM	0.469 µM	> 6.22 µM	0.804 µM	> 9.35 µM
OCC1OC(n2cnc3c(=S)nc[nH]c32)C(O)C1O (stereo unspecified)	3.82 µM	> 2210 µM	0.698 µM	> 1780 µM	12.2 µM	2490 µM and > 100 µM	> 30 µM	2480 µM and > 100 µM	1.82 µM	> 2500 µM	3.52 µM	> 2500 µM	6.36 µM	> 2500 µM	34.1 µM	> 2500 µM	2.95 µM	> 2500 µM		> 2500 µM
CCNCCNc1cc(C2CCCCC2)c(C#N)c2nc3ccccc3n12	1.46 µM	3.49 µM	2.28 µM	4.08 µM	2.38 µM	7.04 µM	1.8 µM	3.48 µM	1.53 µM	3.27 µM	2.35 µM	6.82 µM	2.93 µM	7.99 µM	1.52 µM	3.4 µM	1.58 µM	3.42 µM	1.66 µM	3.36 µM
O=C(N/N=C/c1cc([N+](=O)[O-])ccc1O)c1cccc2ccccc12	2.27 µM	6.02 µM	1.26 µM	13 µM	2.36 µM	8.47 µM	3.12 µM	21.7 µM	2.49 µM	13.4 µM	2.32 µM	51.6 µM	2.88 µM	> 100 µM	6.2 µM	44.7 µM	3.28 µM	23.3 µM	1.8 µM	19.5 µM
Cc1ccc2c(c1)C(=O)c1c-2n(CCCBr)c(=O)c2cc([N+](=O)[O-])ccc12	18.3 µM	> 100 µM	29.4 µM	> 100 µM	6.65 µM	65.8 µM	> 100 µM	> 100 µM	4.46 µM	> 100 µM	54.7 µM	> 100 µM	> 100 µM	> 100 µM	48.1 µM	> 100 µM	7.69 µM	60.8 µM	27.5 µM	> 100 µM
Nc1n[nH]c2ccc([C@@H]3Nc4ccc5[nH]ncc5c4[C@H]4C5C=CC(C5)[C@@H]34)cc12 (stereo partly specified)	0.321 µM	4.39 µM	1.46 µM	10.7 µM	0.497 µM	24.9 µM	0.655 µM	35.3 µM	0.14 µM	19 µM	0.298 µM	2.28 µM	0.563 µM	> 89.5 µM	0.176 µM	24.8 µM	10.9 µM	77.1 µM	0.769 µM	31.7 µM
COC(=O)C(F)C(Br)C(=O)OC (stereo unspecified)		3.93 µM		4.96 µM		> 20.5 µM		16.5 µM		15.6 µM		8.93 µM		12.6 µM		31 µM		6.63 µM		3.52 µM
O=C(OCCBr)c1ccc(Cl)c([N+](=O)[O-])c1	15.7 µM	42.6 µM	16 µM	33.2 µM	16.5 µM	37.6 µM	19.1 µM	43.4 µM	2.51 µM	7.5 µM	21.4 µM	53.1 µM	17.3 µM	35.2 µM	5.63 µM	12.2 µM	2.29 µM	5.49 µM	2.72 µM	7.85 µM
Clc1nc(Cl)c(-c2ccccc2)c(Cl)n1		4.77 µM		11.4 µM		14 µM		4.38 µM		9.45 µM		11 µM		10.6 µM		> 54.8 µM		9.28 µM		9.08 µM
COc1cc(C2C3=C(COC3=O)Nc3cc4c(cc32)CCC4)cc2c1OCO2 (stereo unspecified)	0.033 µM	0.724 µM	12.7 µM	40.5 µM	0.0617 µM	17.1 µM	19.1 µM	74.6 µM	0.0349 µM	13.3 µM	0.0345 µM	0.881 µM	0.0399 µM	1.99 µM	0.0259 µM	18.8 µM	12 µM	59.8 µM	1.05 µM	26.5 µM
Nc1ccc(-c2ccc(N)cc2I)c(I)c1	18.4 µM	47.6 µM	11.2 µM	37 µM	13.9 µM	56.1 µM	11.9 µM	36.7 µM	18.4 µM	58.1 µM	19 µM	70 µM	27.1 µM	94.7 µM	10.8 µM	73.8 µM	18.5 µM	59.1 µM	10.6 µM	26 µM
FC(F)(F)c1ccc(-c2cnc(Cl)nc2NCc2cc(C(F)(F)F)cc(C(F)(F)F)c2)cc1	2.6 µM	6.73 µM	1.37 µM	4.3 µM	7.87 µM	> 100 µM	2.84 µM	7.56 µM	2.65 µM	> 100 µM	2.98 µM	> 100 µM	3.48 µM	> 100 µM	1.7 µM	> 100 µM	3.14 µM	> 100 µM	2.51 µM	> 100 µM
COc1cc(C2CC(c3ccc(N(C)C)cc3)=NN2C(C)=O)cc(OC)c1OC (stereo unspecified)	7.94 µM	> 25.1 µM	29.6 µM	> 100 µM	2.65 µM	> 100 µM	> 100 µM	> 100 µM	0.577 µM	> 100 µM	3.78 µM	> 100 µM	6.13 µM	> 100 µM	1.43 µM	> 100 µM	> 24.7 µM	> 100 µM	3.59 µM	> 100 µM
CCC(/C=C/c1ccccc1)=N\Nc1ccc(Cl)c(Cl)c1		72.5 µM		58.2 µM		37.5 µM		78.9 µM		> 100 µM		> 100 µM		39.6 µM		> 100 µM		> 100 µM		57.9 µM
CCCOC(=O)CCn1c(SC)nc2[nH]cc(-c3ccccc3)c2c1=O	1.77 µM	23.2 µM	3.64 µM	40.4 µM	13.5 µM	49.6 µM	18.5 µM	51.8 µM	19.7 µM	> 100 µM	25.4 µM	> 100 µM	20.5 µM	> 100 µM	13.4 µM	57.6 µM	11.7 µM	62 µM	23.9 µM	75.5 µM
C=C1CCC2C3(C)COC(c4ccccc4Br)OC3CCC2(C)C1C/C=C1/C(=O)OCC1OC(C)=O (stereo unspecified)	0.708 µM	2.98 µM	1.36 µM	3.02 µM	1.15 µM	2.48 µM	1.92 µM	4.12 µM	0.62 µM	2 µM	1.18 µM	3.12 µM	0.584 µM	1.8 µM	1.17 µM	2.46 µM	1.08 µM	2.77 µM	1.34 µM	2.72 µM
c1ccc(P(CCP(CCP(c2ccccc2)c2ccccc2)c2ccccc2)CCP(c2ccccc2)c2ccccc2)cc1 (stereo unspecified)		3.69 µM	> 10 µM and 2.25 µM	> 10 µM		> 10 µM		> 10 µM		3.04 µM		> 10 µM	> 10 µM and 1.87 µM	> 10 µM	4.55 µM and 1.91 µM	> 10 µM		4.79 µM		> 10 µM
CCCCN(CCCC)c1ccc(C(=NC(C)CCCN(CC)CC)c2ccc(N(C)C)cc2)cc1 (stereo unspecified)	1.01 µM	2.03 µM	0.609 µM	1.71 µM	0.897 µM	1.95 µM	0.785 µM	1.62 µM	0.836 µM	1.95 µM	0.893 µM	1.94 µM	0.99 µM	2.09 µM	0.734 µM	1.56 µM	0.809 µM	1.89 µM	0.713 µM	1.42 µM
